What was measured:
Botrytis cinerea [1] = test: Ex-planta rose petals, damaged area after Botrytis cinerea spore droplets; conditions: thick, medium and thin sprayed layers; 10^4 spores per milliliter, 30 μL droplets, 72 hours, room temperature
Procedure: Botrytis cinerea culture was diluted in potato dextrose broth (PDB) medium to a final concentration of 10^4 spores per milliliter. 30 μL droplets were put on the coated leaves and uncoated control leaves and left in room temperature protected from light for 72 hours. A damaged area can be observed below and surrounding each droplet. The damaged area was then measured using a caliper along its long and the short directions.

[2] = Roughness (RMS) of spray-deposited fatty acid layer, dynamic confocal microscope; assay type: physicochemical; conditions: for Roughness [μm] (N = 3) / Roughness [μm]: spray coating; for Roughness [μm] (about 10% RSD): sprayed on stainless steel, room temperature; for Roughness [μm]: N = 5
Procedure: Roughness and coating thickness were measured using a dynamic confocal microscope (Leica DCM3D); data processing was performed using SensoMap Turbo software. The coating thickness was calculated as the difference in height between the lower and upper levels of a confocal profile measured after a scratch implementation on the coating using a 25G needle. Spray coating was performed by spraying a selected organic solution of a selected fatty acid or a selected mixture of fatty acids on a desired surface using commercially available spraying gun. Gun adjustment is required to obtain the optimal coating properties. Exemplary adjustment parameters included distance from the treated surface, which was optimal at around 30 cm, and pulse duration, which was optimal at 1-5 seconds (e.g., 1-2 seconds). Other parameters are described hereinabove. Exemplary solutions were sprayed onto a surface of stainless steel, at room temperature. Roughness (RMS) and wettability measurements were performed as described hereinabove.

Botrytis cinerea [3] = test: Anti-fungal effect of neat fatty acids on PDA agar plates; assay type: cell-based; conditions: neat fatty acid at centre of PDA plate, 24° C., 72 hours
Procedure: Anti-fungal studies: Botrytis cinerea (B. cinerea) isolate B05.10 was collected from Vitis vinifera. Botrytis cinerea spores were plated on potato dextrose agar (PDA) plates, each fatty acid powder was placed in the center of the plate, and the plates were then incubated at 24° C. for 72 hours. In the case of caprylic acid, a hole was punched in the middle of the agar plate in order to contain its liquid form.

E. coli = test: Antimicrobial properties of fatty acid powders in liquid medium, drop-plate method; assay type: cell-based, Escherichia coli; conditions: 50 milligram SFA powder per 1 mL suspension, 24 hours at 37° C.; control 1.2 ± 0.2 · 10^8
Procedure: (§1) Antimicrobial studies: The antimicrobial properties of fatty acid powders were evaluated by in liquid medium via the drop-plate method. One bacteria colony (E. coli or L. innocua) was incubated overnight in 4 mL Nutrient Broth (NB) liquid medium (Sigma Aldrich, Israel) at 37° C. under agitation (150 rpm) until the bacteria reached a stationary phase (about 10^9 CFU/mL). Then, the overnight bacteria culture was diluted in fresh NB medium (about 10^7 CFU/mL) and incubated for an additional 2 hours to achieve a logarithmic culture. Next, the logarithmic culture was diluted to 10^4 CFU mL^−1 in 1:100 NB medium.
(§2) 1 mL of the diluted bacterial suspension was incubated with 50 milligram of different SFA powders at 37° C. for 24 hours in 24-well-plates under agitation (100 rpm). The cultures were decimally diluted and 10 μL drops were transferred onto NB solid agar substrate. The colonies were counted after 24 hours incubation at 37° C.
(§3) To study the intrinsic bactericidal effect of the tested SFAs against both Gram-positive and Gram-negative bacteria, incubation of bacteria culture with powdered SFAs followed by colony counting was performed. Table 3 hereinbelow presents E. coli and L. innocua count in colony-forming unit (CFU) per milliliter, estimated by the drop-plate method following incubation for 24 hours at 37° C. with the SFA powders in respective liquid media.

L. innocua = test: as above; assay type: cell-based, Listeria innocua; conditions: 24 hours at 37° C.; for L. innocua [CFU mL^−1]: 50 milligram SFA powder per 1 mL suspension, control 2.4 ± 0.2 · 10^5; for L. innocua growth inhibition: powdered SFA
Procedure: as §1, §2, §3

[4] = Contact angle hysteresis (CAH) of spray-coated fatty acid coatings; assay type: physicochemical; conditions: spray coating
Procedure: Wetting properties of the coatings were characterized by CA and CAH measurements, which were performed using an Attension Theta Lite tensiometer and high-purity water or ethylene glycol (99.5%, Merck, Germany) droplets of 7 μL volume.

[5] = Wetting properties: water contact angle (CA) of fatty acid coatings; assay type: physicochemical; conditions: for Contact angle [°] (N = 3) / Contact angle [°]: spray coating; for Contact angle [°] (about 5% RSD): sprayed on stainless steel, room temperature; for Contact angle [°]: N = 5
Procedure: Wetting properties of the coatings were characterized by CA and CAH measurements, which were performed using an Attension Theta Lite tensiometer and high-purity water or ethylene glycol (99.5%, Merck, Germany) droplets of 7 μL volume. Spray coating was performed by spraying a selected organic solution of a selected fatty acid or a selected mixture of fatty acids on a desired surface using commercially available spraying gun. Gun adjustment is required to obtain the optimal coating properties. Exemplary adjustment parameters included distance from the treated surface, which was optimal at around 30 cm, and pulse duration, which was optimal at 1-5 seconds (e.g., 1-2 seconds). Other parameters are described hereinabove. […] Roughness (RMS) and wettability measurements were performed as described hereinabove.

[6] = Diethyl ether (Tb 36.4), 50 mg/ml
[7] = Diethyl ether (Tb 36.4), 50 mg/ml, listed as palmitic acid
[8] = Diethyl ether (Tb 36.4), 20 mg/ml

CCCCCCCCCCCCCCCC(=O)O [Palmitic acid]
protection of rose petals against damage by Botrytis cinerea (Botrytis cinerea [1]): most effectively inhibit damage propagation | Roughness [μm] (N = 3) [2, 6]: 4.4 ± 0.4 μm | Roughness [μm] (about 10% RSD) ([2]; Acetone, 15 mg/ml): 5.0 μm | Roughness [μm] (about 10% RSD) ([2]; Diethyl ether, 10 mg/ml): 3.2 μm | Roughness [μm] (about 10% RSD) ([2]; Diethyl ether, 20 mg/ml): 4.8 μm | Roughness [μm] (about 10% RSD) ([2]; EtOH, 10 mg/ml): 2.3 μm | Roughness [μm] (about 10% RSD) ([2]; MeOH, 10 mg/ml): 3.6 μm | anti-fungal effect against Botrytis cinerea growth (Botrytis cinerea [3]): do not present any anti-fungal effect | E. coli [CFU mL^−1] (E. coli): 1.4 ± 0.6 · 10^8 CFU mL^−1 | L. innocua [CFU mL^−1] (L. innocua): 1.7 ± 0.5 · 10^4 CFU mL^−1 | L. innocua growth inhibition (L. innocua): inhibited by an order of magnitude | CAH [°] (N = 3) [4, 6]: 11.1 ± 4.6 ° | CAH [°] (N = 3) [4, 7]: 11.1 ° | Contact angle [°] (N = 3) [5, 6]: 156.6 ± 2.3 ° | Contact angle [°] (N = 3) [5, 7]: 156.6 ° | CA angle ([5]; spray-coated): above 150 ° | Contact angle [°] (about 5% RSD) ([5]; Acetone, 15 mg/ml): 140 ° | Contact angle [°] (about 5% RSD) ([5]; Diethyl ether, 10 mg/ml): 145 ° | Contact angle [°] (about 5% RSD) ([5]; Diethyl ether, 20 mg/ml): 148 ° | Contact angle [°] (about 5% RSD) ([5]; EtOH, 10 mg/ml): 111 ° | Contact angle [°] (about 5% RSD) ([5]; MeOH, 10 mg/ml): 137 ° | CA ([5]; thermally deposited on glass): below 140 °

CCCCCCCCCCCCCC(=O)O [Myristic acid]
Roughness [μm] (about 10% RSD) ([2]; Acetone, 10 mg/ml): 4.2 μm | Roughness [μm] (about 10% RSD) ([2]; Diethyl ether, 20 mg/ml): 5.6 μm | Roughness [μm] (about 10% RSD) ([2]; EtOH, 10 mg/ml): 4.7 μm | Contact angle [°] (about 5% RSD) ([5]; Acetone, 10 mg/ml): 120 ° | Contact angle [°] (about 5% RSD) ([5]; Diethyl ether, 20 mg/ml): 132 ° | Contact angle [°] (about 5% RSD) ([5]; EtOH, 10 mg/ml): 115 °

CCCCCCCCCCCCCCCCCCCC(=O)O [Arachidic acid]
Roughness [μm] (about 10% RSD) ([2]; Acetone, 2 mg/ml): 2.7 μm | Roughness [μm] (about 10% RSD) ([2]; Diethyl ether, 10 mg/ml): 4.3 μm | Roughness [μm] (about 10% RSD) ([2]; EtOH, 1 mg/ml): 0.9 μm | E. coli [CFU mL^−1] (E. coli): 9.6 ± 3.2 · 10^7 CFU mL^−1 | L. innocua [CFU mL^−1] (L. innocua): 0 CFU mL^−1 | L. innocua growth inhibition (L. innocua): completely inhibited | Contact angle [°] (about 5% RSD) ([5]; Acetone, 2 mg/ml): 134 ° | Contact angle [°] (about 5% RSD) ([5]; Diethyl ether, 10 mg/ml): 152 ° | Contact angle [°] (about 5% RSD) ([5]; EtOH, 1 mg/ml): 119 °

CCCCCCCCCCCCCCCCCC(=O)O [Stearic acid]
Roughness [μm] (N = 3) ([2]; Acetone (Tb 56.0), 10 mg/ml): 11.9 ± 3.7 μm | Roughness [μm] ([2]; Acetone (Tb 56.0), 20 mg/ml): 7.5 ± 0.9 μm | Roughness [μm] [2, 8]: 6.1 ± 1.0 μm | Roughness [μm] (N = 3) [2, 6]: 8.0 ± 0.6 μm | Roughness [μm] (N = 3) ([2]; EtOH (Tb 78.4), 10 mg/ml): 1.5 ± 0.06 μm | Roughness [μm] ([2]; EtOH (Tb 78.4), 20 mg/ml): 1.1 ± 0.1 μm | Roughness [μm] (about 10% RSD) ([2]; Acetone, 5 mg/ml): 1.3 μm | Roughness [μm] (about 10% RSD) ([2]; Acetone, 20 mg/ml): 7.5 μm | Roughness [μm] (about 10% RSD) ([2]; Diethyl ether, 15 mg/ml): 5.7 μm | Roughness [μm] (about 10% RSD) ([2]; Diethyl ether, 20 mg/ml): 6.1 μm | Roughness [μm] (about 10% RSD) ([2]; EtOH, 5 mg/ml): 0.7 μm | Roughness [μm] (about 10% RSD) ([2]; EtOH, 20 mg/ml): 1.1 μm | Roughness [μm] (about 10% RSD) ([2]; MeOH, 4 mg/ml): 3.5 μm | E. coli [CFU mL^−1] (E. coli): 1.8 ± 0.05 · 10^8 CFU mL^−1 | L. innocua [CFU mL^−1] (L. innocua): 1.9 ± 0.5 · 10^4 CFU mL^−1 | L. innocua growth inhibition (L. innocua): inhibited by an order of magnitude | CAH [°] (N = 3) ([4]; Acetone (Tb 56.0), 10 mg/ml): 2.3 ± 1.2 ° | CAH [°] (N = 3) ([4]; Acetone (Tb 56.0), 20 mg/ml): 2.0 ± 1.7 ° | CAH [°] (N = 3) [4, 8]: 2.2 ± 1.1 ° | CAH [°] (N = 3) [4, 6]: 1.7 ± 1.4 ° | CAH [°] (N = 3) ([4]; EtOH (Tb 78.4), 10 mg/ml): 27.5 ± 7.0 ° | CAH [°] (N = 3) ([4]; EtOH (Tb 78.4), 20 mg/ml): 11 ± 1.2 ° | effect of adding a food coloring agent on water contact angle ([5]; 0.02 gram/ml in diethyl ether plus coloring agent, spray-coated on glass): no change in water contact angle | Contact angle [°] (N = 3) ([5]; Acetone (Tb 56.0), 10 mg/ml): 156.4 ± 1.5 ° | Contact angle [°] ([5]; Acetone (Tb 56.0), 20 mg/ml): 156.5 ± 5.5 ° | Contact angle [°] [5, 8]: 165.3 ± 1.1 ° | Contact angle [°] (N = 3) [5, 6]: 165.7 ± 4.4 ° | Contact angle [°] (N = 3) ([5]; EtOH (Tb 78.4), 10 mg/ml): 113.2 ± 4.6 ° | Contact angle [°] ([5]; EtOH (Tb 78.4), 20 mg/ml): 118.3 ± 5.8 ° | Contact angle [°] (about 5% RSD) ([5]; Acetone, 5 mg/ml): 145 ° | Contact angle [°] (about 5% RSD) ([5]; Acetone, 20 mg/ml): 156 ° | Contact angle [°] (about 5% RSD) ([5]; Diethyl ether, 15 mg/ml): 149 ° | Contact angle [°] (about 5% RSD) ([5]; Diethyl ether, 20 mg/ml): 165 ° | Contact angle [°] (about 5% RSD) ([5]; EtOH, 5 mg/ml): 110 ° | Contact angle [°] (about 5% RSD) ([5]; EtOH, 20 mg/ml): 118 ° | Contact angle [°] (about 5% RSD) ([5]; MeOH, 4 mg/ml): 136 °

C/C=C/C=C/C(=O)O [sorbic acid]
anti-fungal effect against Botrytis cinerea growth (Botrytis cinerea [3]): significant growth inhibition | properties of sprayed coating as single component ([5]; preliminary tests, data not shown): hydrophilic coating which was not stable over time

CCCCCCCCCCCCCCCCCCCCCC(=O)O [Behenic acid]
Roughness [μm] (about 10% RSD) ([2]; Diethyl ether, 2 mg/ml): 4.2 μm | anti-fungal effect against Botrytis cinerea growth (Botrytis cinerea [3]): do not present any anti-fungal effect | Contact angle [°] (about 5% RSD) ([5]; Diethyl ether, 2 mg/ml): 156 °

CCCCCCCC(=O)O [caprylic acid, Caprylic acid]
anti-fungal effect against Botrytis cinerea growth (Botrytis cinerea [3]): complete inhibition

CCCCCCCCCCCC(=O)O [Lauric acid]
Roughness [μm] (about 10% RSD) ([2]; EtOH, 10 mg/ml): 5.2 μm | Contact angle [°] (about 5% RSD) ([5]; EtOH, 10 mg/ml): 113 °
